Data reported in ChEMBL document CHEMBL1129277, “Nonpeptidal P2 ligands for HIV protease inhibitors: structure-based design, synthesis, and biological evaluation” (J Med Chem, 1996).
≈ marks a conversion by molar mass, not a printed value.

Tests used:
[1] = tested on: Human immunodeficiency virus 1; assay: Inhibition of HIV-1 replication in infected MT-4 human T-lymphoid cells.; type: functional, organism-based; conditions: Human immunodeficiency virus 1, T-lymphoid
[2] = target: Human immunodeficiency virus type 1 protease (Human immunodeficiency virus 1) (UniProt Q72874); assay: Inhibitory activity against HIV-1 protease enzyme
[3] = Aqueous solubility in phosphate buffer of pH 7.4; type: physicochemical

Compound: COC[C@H]1[C@@H](OC(=O)N[C@@H](Cc2ccccc2)[C@H](O)CN2C[C@H]3CCCC[C@H]3C[C@H]2C(=O)NC(C)(C)C)CCS1(=O)=O
- IC50 [1]: 23.8 nM

Compound: CC(C)(C)NC(=O)[C@@H]1C[C@@H]2CCCC[C@@H]2CN1C[C@@H](O)[C@H](Cc1ccccc1)NC(=O)O[C@@H]1CO[C@@H]2CCO[C@@H]21
- IC95 [2]: > 200 nM
- IC50 [1]: > 3000 nM

Compound: CC(C)(C)NC(=O)[C@@H]1C[C@@H]2CCCC[C@@H]2CN1C[C@@H](O)[C@H](Cc1ccccc1)NC(=O)O[C@H]1CO[C@H]2COC[C@H]21
- IC50 [1]: 1700 nM

Compound: CC(C)(C)NC(=O)[C@@H]1C[C@@H]2CCCC[C@@H]2CN1C[C@@H](O)[C@H](Cc1ccccc1)NC(=O)O[C@H]1CCS(=O)(=O)C1
- IC95 [2]: 364 nM
- IC50 [1]: 76 nM

Compound: CC(C)(C)NC(=O)[C@@H]1C[C@@H]2CCCC[C@@H]2CN1C[C@@H](O)[C@H](Cc1ccccc1)NC(=O)O[C@H]1CO[C@@]2(C)OCC[C@@H]12
- IC95 [2]: > 200 nM
- IC50 [1]: 18.1 nM

Compound: CC(C)(C)NC(=O)[C@@H]1C[C@@H]2CCCC[C@@H]2CN1C[C@@H](O)[C@H](Cc1ccccc1)NC(=O)O[C@@H]1CCOC1
- IC95 [2]: > 800 nM
- IC50 [1]: 694 nM

Compound: C[C@H]1C[C@@H]2[C@@H](OC[C@@H]2OC(=O)N[C@@H](Cc2ccccc2)[C@H](O)CN2C[C@H]3CCCC[C@H]3C[C@H]2C(=O)NC(C)(C)C)O1
- IC95 [2]: 200 nM
- IC50 [1]: 27.1 nM

Compound: CC(C)(C)NC(=O)[C@@H]1C[C@@H]2CCCC[C@@H]2CN1C[C@@H](O)[C@H](Cc1ccccc1)NC(=O)O[C@H]1CO[C@H]2OCCC[C@H]21
- IC95 [2]: 100 nM
- IC50 [1]: 4.2 nM

Compound: CC(C)(C)NC(=O)[C@@H]1C[C@@H]2CCCC[C@@H]2CN1C[C@@H](O)[C@H](Cc1ccccc1)NC(=O)O[C@H]1CCOC1
- solubility [3]: 150 µg/mL (≈ 291 µM)
- IC50 [1]: 132 nM

Compound: CC(C)(C)NC(=O)[C@@H]1C[C@@H]2CCCC[C@@H]2CN1C[C@@H](O)[C@H](Cc1ccccc1)NC(=O)O[C@@H]1CO[C@@H]2OCCC[C@@H]21
- IC95 [2]: 50 nM
- solubility [3]: 107 µg/mL (≈ 187 µM)
- IC50 [1]: 1.2 nM

Compound: CC(C)(C)NC(=O)[C@@H]1C[C@@H]2CCCC[C@@H]2CN1C[C@@H](O)[C@H](Cc1ccccc1)NC(=O)O[C@H]1CO[C@H]2CCC[C@H]21
- IC50 [1]: 190 nM

Compound: CC(C)(C)NC(=O)[C@@H]1C[C@@H]2CCCC[C@@H]2CN1C[C@@H](O)[C@H](Cc1ccccc1)NC(=O)O[C@H]1CCSC1
- IC50 [1]: 132 nM

Compound: CC(C)(C)NC(=O)[C@@H]1C[C@@H]2CCCC[C@@H]2CN1C[C@@H](O)[C@H](Cc1ccccc1)NC(=O)O[C@H]1CO[C@H]2OCC[C@H]21
- solubility [3]: 235 µg/mL (≈ 421 µM)
- IC50 [1]: 1.8 nM

Compound: CC(C)(C)NC(=O)[C@@H]1C[C@@H]2CCCC[C@@H]2CN1C[C@@H](O)[C@H](Cc1ccccc1)NC(=O)O[C@@H]1CO[C@@H]2OCC[C@@H]21
- solubility [3]: 130 µg/mL (≈ 233 µM)
- IC50 [1]: 6.4 nM

Compound: C[C@@H]1C[C@@H]2[C@@H](OC[C@@H]2OC(=O)N[C@@H](Cc2ccccc2)[C@H](O)CN2C[C@H]3CCCC[C@H]3C[C@H]2C(=O)NC(C)(C)C)O1
- IC95 [2]: 200 nM
- IC50 [1]: 4.1 nM

Compound: COC[C@@H]1SCC[C@@H]1OC(=O)N[C@@H](Cc1ccccc1)[C@H](O)CN1C[C@H]2CCCC[C@H]2C[C@H]1C(=O)NC(C)(C)C
- IC50 [1]: 19.7 nM

Compound: CC(C)(C)NC(=O)[C@@H]1C[C@@H]2CCCC[C@@H]2CN1C[C@@H](O)[C@H](Cc1ccccc1)NC(=O)O[C@H]1CC[C@H]2OCC[C@@H]12
- IC50 [1]: 17 nM

Compound: CC(C)(C)NC(=O)[C@@H]1C[C@@H]2CCCC[C@@H]2CN1C[C@@H](O)[C@H](Cc1ccccc1)NC(=O)O[C@]12CCO[C@H]1OCC2
- IC95 [2]: > 200 nM
- IC50 [1]: 410 nM

Compound: CC(C)(C)NC(=O)[C@@H]1C[C@@H]2CCCC[C@@H]2CN1C[C@@H](O)[C@H](Cc1ccccc1)NC(=O)[C@H](CC(N)=O)NC(=O)c1ccc2ccccc2n1 [SAQUINAVIR]
- solubility [3]: 10 µg/mL (≈ 14.9 µM)
